Reference: US4512980A, “Peptide, process for preparation thereof and use thereof” (priority 1979, dated 1985)

Legend:
Mice (DDY male 5-6 W) = assay: Blood stream clearance of carbon; type: in vivo; conditions: carbon clearance measured 24 hours later
Method: 1. Carbon suspension. Rotoring drawing ink (170 mg carbon/ml.) was diluted to 1/5 of the original concentration in saline containing 1% gelatin. 2. 0.1% aqueous sodium carbonate solution. Mice (DDY male 5-6 W) were injected via the tail vein with a dose of 0.01 ml/g body weight of carbon. Blood samples were taken by means of a pointed capillary […] calibrated to hold a 50 μl and previously washed in heparin. This was plunged into the retroorbital venous sinus at the nasal angle of the eye. The samples were removed at 3 and 6 min. The blood was immediately discharged into 3.0 ml. of the sodium carbonate solution. This hemolyzed the blood and allowed the quantitation of carbon. The samples were then read in a spectrophotometer at 660 nm, the log concentration being obtained from a previously determined standard curve. The clearance value K may be determined by plotting log carbon concentration against time according to the following relationship; [formula] in which T1 and T2 represent the time in min when the sample were withdrawn and C1 and C2 represent the concentrations of carbon in the blood at the time T1 and T2, respectively. The aqueous solution of the drug as given was administered subcutaneously to mice. Twenty four hours later, blood stream clearance of carbon was measured. K value obtained with treated mice was compared with that of control mice.

E. coli 22 = assay: Protective efficacy in experimental infection in mice; type: in vivo; conditions: male ICR mice, E. coli 22 i.p., survival after four days
Method: In determining the protective efficacy against experimental infections in mice, the test compound was dissolved in and diluted with sterile saline to provide prescribed concentrations of drug.
Male ICR-strain mice, aged 4 weeks were used in groups of ten mice. E. coli 22 was cultivated overnight at 37° C. on trypticase soy agar and then were suspended in a sterile saline to obtain microbial cell concentration of 9.0×10^7 CFU/ml. Mice were inoculated intraperitoneally with 0.2 ml of the suspension. Each of the test drugs was given intraperitoneally in various doses to a group of ten mice 24 hours before challenge.
Survival percent were found from the number of the surviving animals after four days of injection.

D-Lac-L-Ala-γ-D-Glu(α-OH)-(L)-[D-Lac-L-Ala-γ-D-Glu(α-OH)-(L)-mesoDAP-(D)-Gly]-(D)-mesoDAP-(L)-GlyOH [Example 13 (Step 2)]
K treated/K control (Mice (DDY male 5-6 W); dose 1 mg/mouse subcutaneously): 0.6 | K treated/K control (Mice (DDY male 5-6 W); dose 100 mg/mouse subcutaneously): 1.6 | Survival (%) (E. coli 22; dose 1 mg/kg intraperitoneally 24 hours before challenge): 100% | Survival (%) (E. coli 22; dose 10 mg/kg intraperitoneally 24 hours before challenge): 100%
